# From PubChem BioAssay AID1902 (Broad Institute, 2009)
# pEC50: −log10 of the molar value. Active and inactive are the calls of the source.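 The calls were made as follows: active = EC50 no more than a set limit of log units above the highest dose; inactive = the rest.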
# Molecular target: S. pyogenes SKKanGAS, kanamycin survival, BacTiterGlo, 6 h
# Assay: S. pyogenes SKKanGAS kanamycin growth inhibitors – SKKanGAS strain, luminescence, dose confirmation, streptokinase promoter inhibitor project, dose response (AID 1902);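 also: lower survival reflects blocked streptokinase promoter driving kanamycin resistance gene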
Compound,pEC50,EC50
CCCNC1=C(C)C(=O)C2=C(C1=O)C(COC(N)=O)[C@]1(OC)C3NC3CN21 (stereo partly specified),> 7.22,
CCN1CCN(c2cc3c(cc2F)c(=O)c(C(=O)O)cn3C2CC2)CC1,5.89,
Cc1cc(Br)c(OCc2ccc(C(=O)N/N=C3\CC4CC=CC34)cc2)c(Br)c1 (stereo unspecified),5.40,
O=C(Nc1nccs1)c1sc2ccccc2c1Cl,,> 15 µM (inactive)
Cc1ccc(C2C(/C=C3/SC(=S)NC3=O)=C(c3cccs3)Oc3ccccc32)cc1 (stereo unspecified),6.19,
Cc1ccc(O)c(C(=O)CC(=O)c2ccccc2Cl)c1,5.45,
CCCC(NC(=S)NCC1CCCO1)C12CC3CC(CC(C3)C1)C2 (stereo unspecified),5.24,
O=C(Nc1ccc(Br)cc1C(=O)O)c1ccc2c(c1)C(=O)N(Cc1ccccc1)C2=O,5.94,
CCCCCCCC(=O)NNC(=O)c1c(O)c2ccccc2n(CCC)c1=O,5.96,
N#C/C(=C(/O)c1cc2ccccc2o1)c1nc2ccccc2s1,5.02,
CC(=O)OCC1=C(C(=O)O)N2C(=O)C(NC(=O)Cn3nc(C(F)F)c(Cl)c3C)C2SC1 (stereo unspecified),> 7.22,
Clc1ccc2c(N/N=C/c3cccc(Br)c3)ccnc2c1,5.54,
CNC[C@H](Cc1ccccc1)NC[C@@H](Cc1cccc2ccccc12)NCCc1ccc(C)cc1,5.37,
N#Cc1c(NC(=O)CSc2n[nH]c(Cc3ccccc3)n2)oc(-c2ccccc2)c1-c1ccccc1,5.31,
O=C(CN(c1cccc(Br)c1)S(=O)(=O)c1ccccc1)N/N=C/c1cc([N+](=O)[O-])ccc1O,6.36,
CN(C)CCOc1ccc(/C(=C(/CCCl)c2ccccc2)c2ccccc2)cc1,5.31,
Fc1ccccc1CNc1cc(Cl)cc(Cl)c1,4.90,
Oc1ccccc1N=Nc1ccccc1O,6.02,
CC(C)Nc1nc(Oc2cccc(Cl)c2Cl)cc(C(F)(F)F)n1,5.28,
Cc1cccc(C)c1NC(=S)N/N=C/c1ccc(OCCC(C)C)cc1,5.60,
c1ccc(-c2nc(-c3nccc4ccccc34)oc2-c2ccccc2)cc1,5.45,
CCOC(=O)C1=C(c2ccc(OC)cc2)C(=O)c2ccccc2C1=O,5.75,
Cn1c2ccccc2c(=O)c2cc(C#Cc3ccc(N)cc3)ccc21,5.87,
CCCCCCCCCCC[N+](C)(C)CC/C=C1/c2ccccc2Sc2ccc(Cl)cc21,5.62,
O=C(Nc1nnc(C2=COCCO2)o1)c1ccc(Br)cc1,6.11,
CCCOc1ccc(C(=O)NNC(=S)NC(=O)c2cc(-c3ccc(Cl)cc3)nc3ccccc23)cc1,> 7.22,

Compound,pEC50,EC50
O=C(NNC(=O)c1cc(-c2ccc(Cl)cc2Cl)nc2ccccc12)Nc1ccccc1,5.52,
Cc1ccc(-n2c(O)c(C=Nc3ccccc3-c3n[nH]c(=S)[nH]c3=O)c3ccccc3c2=O)cc1C,6.04,
Cc1nnc(-c2ccccc2)c(=O)n1/N=C/c1c(O)ccc2ccccc12,5.36,
C=CCn1c(O)c(C(C)=Nc2ccc(N(CC)CC)cc2)c(=O)[nH]c1=O,5.24,
Cc1ccccc1Nc1c(-c2ccccn2)nc2c(C)cccn12,6.40,
CC12CCC(C(=O)Nc3cccc(Cl)c3Cl)([C@H](Br)C1=O)C2(C)C (stereo partly specified),,> 15 µM (inactive)
Cc1ccc(NC2=NCC(Cc3ccc(Br)cc3)S2)cc1 (stereo unspecified),6.25,
CCc1nnc(NS(=O)(=O)c2ccc(NCc3cc(Cl)cc(Cl)c3O)cc2)s1,4.85,
COc1cccc(C(=O)Nc2nnc(-c3cccs3)o2)c1,5.48,
Clc1cccc(Cl)c1C1Nc2cccc3cccc(c23)N1,5.06,
CCCc1ccc(-c2cc(C(=O)N/N=C/c3ccc([N+](=O)[O-])o3)c3ccccc3n2)cc1,5.76,
O=C(c1ccc(O)cc1)c1ccc(C(=O)c2ccc(O)cc2)cc1,5.29,
Cc1c(N/N=C(\C#N)C(=O)c2ccc(Cl)cc2)c(=O)n(-c2ccccc2)n1C,6.44,
CC1=Nc2ccccc2/C1=C\c1nc(-c2ccc(F)cc2)oc1O,5.12,
CC(C)(C)c1ccc(CSc2cnn(C(C)(C)C)c(=O)c2Cl)cc1,5.30,
CC(/C=C/c1ccc(N(C)C)cc1)=N\N=C1\NC(=O)CC(C(=O)Nc2ccccc2)S1 (stereo unspecified),5.50,
COc1ccc(/C=C/c2ccc3cccc(O)c3n2)cc1Br,6.38,
COc1ccc2c(c1)c(CC(=O)Nc1cccc(S(N)(=O)=O)c1)c(C)n2C(=O)c1ccc(Cl)cc1,5.48,
O=C(O)CCn1cc(/C=C/C(=O)c2ccc(Cl)cc2)c(-c2cccc(Br)c2)n1,5.43,
COc1ccc(S(=O)(=O)N[C@@H](C)C(=O)OCC(=O)Nc2cc3oc4ccccc4c3cc2OC)cc1,5.85,
O=S(=O)(c1ccccc1)N1CCN=C1SCc1c(F)cccc1Cl,5.09,
Cc1ccc(C(=O)Nc2nnc(S(=O)(=O)N3CCN(c4ccc(F)cc4)CC3)s2)cc1,,> 15 µM (inactive)
COc1ccc(/C=c2\s/c(=C/C(=O)c3ccc(C)cc3)[nH]c2=O)cc1OC,5.03,
CCOC(=O)c1c(-c2ccc(OC)cc2)csc1/N=C/C1=C(O)CCCC1=O,4.84,
CCOC(=O)N1CCN(C(=O)c2ccc3c(=O)n(CCC4=CCCCC4)c(=S)[nH]c3c2)CC1,5.11,
Cc1cc(COC(=O)C2N3C(=O)[C@@H](NC(=O)COc4ccccc4)[C@H]3SC2(C)C)on1 (stereo partly specified),6.92,

Compound,pEC50,EC50
FC(F)(F)c1cccc(NC(=S)NNC(=S)Nc2ccc(Cl)cc2)c1,5.32,
Clc1ccc(C2=CSC3=Nc4cccc5cccc(c45)N23)cc1,5.13,
Cc1ccc(C)n1-c1sc2c(c1C#N)CCC(C)C2 (stereo unspecified),5.63,
O=C(N[C@H](CO)[C@H](O)c1ccc([N+](=O)[O-])cc1)C(Cl)Cl,6.01,
COc1ccc(-c2cc(C(=O)NNC(=S)NC(=O)c3c(-c4ccccc4)noc3C)[nH]n2)cc1,6.70,
CCN(CC(=O)NC(C)(C)C)C(=O)COc1c(Cl)cc(Cl)c2ccc(C)nc12,6.30,
CN1CCN(C(=O)C(=O)c2cn(CC(=O)N3CCCC3)c3ccccc23)CC1,,> 15 µM (inactive)
CC(=O)C1=C(c2ccc(Br)cc2)C(=O)c2ccccc2C1=O,5.84,
CCC(=O)N1N=C(c2c(O)n(CCc3ccccc3)c(=O)[nH]c2=O)CC1c1ccc(OC)c(OC)c1 (stereo unspecified),6.00,
Cc1ccccc1OCC(=O)Nc1ccccc1N1CCCCC1,5.06,
O=C(c1nc2ccc(Cl)cn2c1CN1CCC(CO)CC1)N1CCc2ccccc2C1,,> 15 µM (inactive)
O=C1Nc2ccccc2S/C1=C/Nc1cccc(Cl)c1,5.17,
CC(C)c1ccc(NC(=O)NC(C)c2ccc3c(c2)OCO3)cc1 (stereo unspecified),,> 15 µM (inactive)
O=C(N/N=C/c1cc(O)ccc1Br)c1cccnc1,5.54,
CC(Oc1ccccc1)C(=O)NC1C(=O)N2C1SC(C)(C)C2C(=O)O (stereo unspecified),6.94,
Oc1c(Br)cc(Br)cc1CNc1ccc(F)cc1,5.05,
CCCC1=NN2C(=N)/C(=C\c3cc(C)n(-c4cc(C)cc(C)c4)c3C)C(=O)N=C2S1,5.74,
COc1ccc(-c2n[nH]c(C)c2-c2ccc(Cl)cc2)c(O)c1,5.19,
Nc1ccc(C#Cc2ccc3oc4ccccc4c(=O)c3c2)cc1,5.86,
CCN1/C(=C/C=C/c2sc3ccccc3[n+]2CC)Sc2ccccc21,5.67,
Cc1cccc2sc(NC(=O)c3ccc(NS(=O)(=O)c4cccs4)cc3)nc12,5.89,
O=C(NC(=S)N1CCN(c2nc(-c3ccccc3)cs2)CC1)c1cccnc1,5.39,
C=CCn1c(Oc2ccc(C(=O)OC)cc2)nc2c1c(=O)n(C)c(=O)n2C,5.10,
Cc1ccc(NC(=O)c2cccc(OCc3c(C)noc3C)c2)cc1S(=O)(=O)Nc1ccccc1Cl,5.13,
